Measurements reported in US12441691B2 (Cytokinetics, Inc., priority 2020, dated 2025).

system: rabbit skeletal myofibrils (fast skeletal myofibrils); experiment: Activation of fast skeletal myofibrils (PUMA assay, AC1.4); format: biochemical; conditions: calcium at pCa25, AC1.4 = concentration at which the compound increased the enzymatic activity
How it was run: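 Detergent-washed rabbit psoas myofibrils (~90% fast fibers), calcium set to give 25% of maximal rate (pCa25). ATPase followed by pyruvate kinase/lactate dehydrogenase-coupled NADH oxidation, absorbance at 340 nm. PM12 buffer: 12 mM PIPES, 2 mM MgCl2, 1 mM DTT, pH 6.8.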

`CC[C@H](C)[C@H]1C(=O)Nc2ccccc2CN1C(=O)NCc1ccccc1` [Compound 276, (S)-N-benzyl-3-((S)-sec-butyl)-2-oxo-1,2,3,5-tetrahydro-4H-benzo[e][1,4]diazepine-4-carboxamide] and `CC[C@H](C)[C@H]1C(=O)Nc2ccccc2CN1C(=O)NCc1ccccc1C(N)=O` [Compound 286] are within 1.5-fold of each other in AC1.4: 0.24 µM for the first, 0.30 µM for the second.

Going from `CC[C@H](C)[C@H]1C(=O)Nc2ccccc2CN1C(=O)Nc1cccc(F)c1` [Compound 277, (S)-3-((S)-sec-butyl)-N-(3-fluorophenyl)-2-oxo-1,2,3,5-tetrahydro-4H-benzo[e][1,4]diazepine-4-carboxamide] to `CC[C@H](C)[C@H]1C(=O)Nc2ccccc2CN1C(=O)Nc1ccn(C)c(=O)c1` [Compound 291, (S)-3-((S)-sec-butyl)-N-(1-methyl-2-oxo-1,2-dihydropyridin-4-yl)-2-oxo-1,2,3,5-tetrahydro-4H-benzo[e][1,4]diazepine-4-carboxamide], the AC1.4 falls from 0.08 µM to 0.05 µM (1.6-fold).

`CC[C@H](C)[C@H]1C(=O)Nc2ccccc2CN1C(=O)Nc1cnc2[nH]ncc2c1` [Compound 278, (S)-3-((S)-sec-butyl)-2-oxo-N-(1H-pyrazolo[3,4-b]pyridin-5-yl)-1,2,3,5-tetrahydro-4H-benzo[e][1,4]diazepine-4-carboxamide] and `CC[C@H](C)[C@H]1C(=O)Nc2ccccc2CN1C(=O)Nc1cncc(OC)c1` [Compound 292, (S)-3-((S)-sec-butyl)-N-(5-methoxypyridin-3-yl)-2-oxo-1,2,3,5-tetrahydro-4H-benzo[e][1,4]diazepine-4-carboxamide] are the same in AC1.4: 0.05 µM for the first, 0.05 µM for the second.

Compared with `CC[C@H](C)[C@H]1C(=O)Nc2ccccc2CN1C(=O)N1CC[C@H](C(=O)OC)C1` [Compound 279, methyl (S)-1-((S)-3-((S)-sec-butyl)-2-oxo-2,3,4,5-tetrahydro-1H-benzo[e][1,4]diazepine-4-carbonyl)pyrrolidine-3-carboxylate], `CC[C@H](C)[C@H]1C(=O)Nc2ccccc2CN1C(=O)N1CC[C@H](C(=O)NC)C1` [Compound 294, (S)-1-((S)-3-((S)-sec-butyl)-2-oxo-2,3,4,5-tetrahydro-1H-benzo[e][1,4]diazepine-4-carbonyl)-N-methylpyrrolidine-3-carboxamide] is 1.6-fold higher in AC1.4: 1.46 µM for the first, 2.32 µM for the second.

Compared with `CC[C@H](C)[C@H]1C(=O)Nc2ccccc2CN1C(=O)N1CC[C@@H](O)C1` [Compound 280, (S)-3-((S)-sec-butyl)-4-((R)-3-hydroxypyrrolidine-1-carbonyl)-1,3,4,5-tetrahydro-2H-benzo[e][1,4]diazepin-2-one], `CC[C@H](C)[C@H]1C(=O)Nc2ccccc2CN1C(=O)N1CC[C@H](O)C1` [Compound 282, (S)-3-((S)-sec-butyl)-4-((S)-3-hydroxypyrrolidine-1-carbonyl)-1,3,4,5-tetrahydro-2H-benzo[e][1,4]diazepin-2-one] is 2.8-fold lower in AC1.4: 1.06 µM for the first, 0.38 µM for the second.

`CC[C@H](C)[C@H]1C(=O)Nc2ccccc2CN1C(=O)N1CCN(CCc2ccccc2)CC1` [Compound 281, (S)-3-((S)-sec-butyl)-4-(4-phenethylpiperazine-1-carbonyl)-1,3,4,5-tetrahydro-2H-benzo[e][1,4]diazepin-2-one] and `CC[C@H](C)[C@H]1C(=O)Nc2ccccc2CN1C(=O)N[C@H](C(N)=O)c1ccccc1` [Compound 287, (S)-N-((S)-2-amino-2-oxo-1-phenylethyl)-3-((S)-sec-butyl)-2-oxo-1,2,3,5-tetrahydro-4H-benzo[e][1,4]diazepine-4-carboxamide] are within 1.5-fold of each other in AC1.4: 0.30 µM for the first, 0.35 µM for the second.

`CC[C@H](C)[C@H]1C(=O)Nc2ccccc2CN1C(=O)Nc1nnc(C)s1` [Compound 283, (S)-3-((S)-sec-butyl)-N-(5-methyl-1,3,4-thiadiazol-2-yl)-2-oxo-1,2,3,5-tetrahydro-4H-benzo[e][1,4]diazepine-4-carboxamide] and `CC[C@H](C)[C@H]1C(=O)Nc2ccccc2CN1C(=O)Nc1cncc(C(N)=O)c1` [Compound 298, (S)-3-((S)-sec-butyl)-N-(5-carbamoylpyridin-3-yl)-2-oxo-1,2,3,5-tetrahydro-4H-benzo[e][1,4]diazepine-4-carboxamide] are within 1.5-fold of each other in AC1.4: 0.09 µM for the first, 0.07 µM for the second.

Compared with `CC[C@H](C)[C@H]1C(=O)Nc2ccccc2CN1C(=O)Nc1cccnc1CO` [Compound 284, (S)-3-((S)-sec-butyl)-N-(2-(hydroxymethyl)pyridin-3-yl)-2-oxo-1,2,3,5-tetrahydro-4H-benzo[e][1,4]diazepine-4-carboxamide], `CC[C@H](C)[C@H]1C(=O)Nc2ccccc2CN1C(=O)Nc1ccn(CCOC)n1` [Compound 299, (S)-3-((S)-sec-butyl)-N-(1-(2-methoxyethyl)-1H-pyrazol-3-yl)-2-oxo-1,2,3,5-tetrahydro-4H-benzo[e][1,4]diazepine-4-carboxamide] is 1.6-fold higher in AC1.4: 0.11 µM for the first, 0.18 µM for the second.

Compared with `CC[C@H](C)[C@H]1C(=O)Nc2ccccc2CN1C(=O)N1CC[C@@H](CO)C1` [Compound 285, (S)-3-((S)-sec-butyl)-4-((R)-3-(hydroxymethyl)pyrrolidine-1-carbonyl)-1,3,4,5-tetrahydro-2H-benzo[e][1,4]diazepin-2-one], `CC[C@H](C)[C@H]1C(=O)Nc2ccccc2CN1C(=O)N1CCC[C@@H](CO)C1` [Compound 302, (S)-3-((S)-sec-butyl)-4-((R)-3-(hydroxymethyl)piperidine-1-carbonyl)-1,3,4,5-tetrahydro-2H-benzo[e][1,4]diazepin-2-one] is 1.5-fold higher in AC1.4: 0.54 µM for the first, 0.82 µM for the second.

Compared with `CC[C@H](C)[C@H]1C(=O)Nc2ccccc2CN1C(=O)c1ccc(C(N)=O)cc1` [Compound 288, 4-((S)-3-((S)-sec-butyl)-2-oxo-2,3,4,5-tetrahydro-1H-benzo[e][1,4]diazepine-4-carbonyl)benzamide], `CC[C@H](C)[C@H]1C(=O)Nc2ccccc2CN1C(=O)N1CC[C@H](C(N)=O)C1` [Compound 296, (S)-1-((S)-3-((S)-sec-butyl)-2-oxo-2,3,4,5-tetrahydro-1H-benzo[e][1,4]diazepine-4-carbonyl)pyrrolidine-3-carboxamide] is 11-fold higher in AC1.4: 0.16 µM for the first, 1.75 µM for the second.

`CC[C@H](C)[C@H]1C(=O)Nc2ccccc2CN1C(=O)N1CC[C@H](C(=O)O)C1` [Compound 289, (S)-1-((S)-3-((S)-sec-butyl)-2-oxo-2,3,4,5-tetrahydro-1H-benzo[e][1,4]diazepine-4-carbonyl)pyrrolidine-3-carboxylic acid] and `CC[C@H](C)[C@H]1C(=O)Nc2ccccc2CN1C(=O)N1CC[C@H](C(=O)N(C)C)C1` [Compound 295] are within 1.5-fold of each other in AC1.4: 3.59 µM for the first, 3.41 µM for the second.

Going from `CC[C@H](C)[C@H]1C(=O)Nc2ccccc2CN1C(=O)NC1CCN(C)CC1` [Compound 290, (S)-3-((S)-sec-butyl)-N-(1-methylpiperidin-4-yl)-2-oxo-1,2,3,5-tetrahydro-4H-benzo[e][1,4]diazepine-4-carboxamide] to `CC[C@H](C)[C@H]1C(=O)Nc2ccccc2CN1C(=O)NC1CCN(CCO)CC1` [Compound 301, (S)-3-((S)-sec-butyl)-N-(1-(2-hydroxyethyl)piperidin-4-yl)-2-oxo-1,2,3,5-tetrahydro-4H-benzo[e][1,4]diazepine-4-carboxamide], the AC1.4 rises from 0.15 µM to 0.36 µM (2.4-fold).

`CC[C@H](C)[C@H]1C(=O)Nc2ccccc2CN1C(=O)NC1CCOCC1` [Compound 293, (S)-3-((S)-sec-butyl)-2-oxo-N-(tetrahydro-2H-pyran-4-yl)-1,2,3,5-tetrahydro-4H-benzo[e][1,4]diazepine-4-carboxamide] and `CC[C@H](C)[C@H]1C(=O)Nc2ccccc2CN1C(=O)N[C@@H]1CCNC1` [Compound 307, (S)-3-((S)-sec-butyl)-2-oxo-N-((R)-pyrrolidin-3-yl)-1,2,3,5-tetrahydro-4H-benzo[e][1,4]diazepine-4-carboxamide] are within 1.5-fold of each other in AC1.4: 0.55 µM for the first, 0.52 µM for the second.

Going from `CC[C@H](C)[C@H]1C(=O)Nc2ccccc2CN1C(=O)N(C)C(C)C` [Compound 297, (S)-3-((S)-sec-butyl)-N-isopropyl-N-methyl-2-oxo-1,2,3,5-tetrahydro-4H-benzo[e][1,4]diazepine-4-carboxamide] to `CC[C@H](C)[C@H]1C(=O)Nc2ccccc2CN1C(=O)N1CC(F)C1` [Compound 306, (S)-3-((S)-sec-butyl)-4-(3-fluoroazetidine-1-carbonyl)-1,3,4,5-tetrahydro-2H-benzo[e][1,4]diazepin-2-one], the AC1.4 falls from 1.13 µM to 0.11 µM (10-fold).

Going from `CC[C@H](C)[C@H]1C(=O)Nc2ccccc2CN1C(=O)N1CC(F)(F)C1` [Compound 300, (S)-3-((S)-sec-butyl)-4-(3,3-difluoroazetidine-1-carbonyl)-1,3,4,5-tetrahydro-2H-benzo[e][1,4]diazepin-2-one] to `CC[C@H](C)[C@H]1C(=O)Nc2ccccc2CN1C(=O)N1CCC[C@H](CO)C1` [Compound 303, (S)-3-((S)-sec-butyl)--4-((S)-3-(hydroxymethyl)piperidine-1-carbonyl)-1,3,4,5-tetrahydro-2H-benzo[e][1,4]diazepin-2-one], the AC1.4 rises from 0.42 µM to 0.89 µM (2.1-fold).

First: CC[C@H](C)[C@H]1C(=O)Nc2ccccc2CN1C(=O)N1CCCC(C(N)=O)C1 (stereo partly drawn) [Compound 304, 1-((S)-3-((S)-sec-butyl)-2-oxo-2,3,4,5-tetrahydro-1H-benzo[e][1,4]diazepine-4-carbonyl)piperidine-3-carboxamide]
Second: CC[C@H](C)[C@H]1C(=O)Nc2ccccc2CN1C(=O)N[C@H]1CCNC1 [Compound 308, (S)-3-((S)-sec-butyl)-2-oxo-N-((S)-pyrrolidin-3-yl)-1,2,3,5-tetrahydro-4H-benzo[e][1,4]diazepine-4-carboxamide]
The AC1.4 of the first is 7.1-fold higher: 2.27 µM for the first, 0.32 µM for the second.

First: CC[C@H](C)[C@H]1C(=O)Nc2ccccc2CN1C(=O)N1CCCC(C(N)=O)C1 (stereo partly drawn) [Compound 305, 1-((S)-3-((S)-sec-butyl)-2-oxo-2,3,4,5-tetrahydro-1H-benzo[e][1,4]diazepine-4-carbonyl)piperidine-3-carboxamide]
Second: COCCN1Cc2ccccc2NC(=O)[C@@H]1C1CCCCCC1 [Compound 309, (S)-3-cycloheptyl-4-(2-methoxyethyl)-1,3,4,5-tetrahydro-2H-benzo[e][1,4]diazepin-2-one]
The AC1.4 of the first is 2.4-fold higher: 1.42 µM for the first, 0.59 µM for the second.
